According to the PolyMetriX glass transition set:

Compound	glass transition temperature [°C]
*Nc1ccc(Cc2ccc(NC(=O)CCCCCCCCC(*)=O)cc2)cc1 (repeat unit)	160.00
*c1cccc(P(=O)(c2ccccc2)c2cccc(-n3c(=O)c4c(-c5cc(C(F)(F)F)cc(C(F)(F)F)c5)c5c(=O)n(*)c(=O)c5c(-c5cc(C(F)(F)F)cc(C(F)(F)F)c5)c4c3=O)c2)c1 (repeat unit)	324.00
*c1cc(*)cc(-c2nc3ccccc3o2)c1 (repeat unit)	250.00
*Nc1ccc(Cc2ccc(NC(=O)c3cc(C(*)=O)cc(N4C(=O)C5CC=CCC5C4=O)c3)cc2)cc1 (repeat unit)	286.00
*Oc1ccc(S(=O)(=O)c2ccc(*)cc2)c2ccccc12 (repeat unit)	238.00
*CCN(CCOC(=O)NC(C)(C)c1cccc(C(C)(C)NC(=O)O*)c1)c1ccc(/N=N/c2ccc([N+](=O)[O-])cc2)cc1 (repeat unit)	103.00
*Oc1ccc(C2(c3ccc(Oc4ccc(C(=O)c5ccccc5-c5ccccc5C(=O)c5ccc(*)cc5)cc4)cc3)c3ccccc3-c3ccccc32)cc1 (repeat unit)	229.00
*CCOC(=O)Nc1ccc(CCc2ccc(NC(=O)O*)cc2)cc1 (repeat unit)	116.90
*CC(*)C(=O)OCCCCCCCOC(=O)c1ccc(OC(=O)c2ccc(C#N)cc2)cc1 (repeat unit)	20.00
*CC(*)(CC(=O)OCCOCCOCCOC)C(=O)OCCOCCOCCOC (repeat unit)	-19.00
*c1ccc(Oc2ccc(S(=O)(=O)c3ccc(Oc4ccc(N5C(=O)c6ccc(Oc7cccc(Oc8ccc9c(c8)C(=O)N(*)C9=O)c7)cc6C5=O)cc4)cc3)cc2)cc1 (repeat unit)	201.00
*Oc1ccc(S(=O)(=O)c2ccc(Oc3ccc(C(C)(C)c4ccc(*)c(Cl)c4)cc3Cl)cc2)cc1 (repeat unit)	205.00
*CC(*)c1cc(C(=O)OCCCCCCCCCC)ccc1-c1ccc(OCCCCCCCC)cc1 (repeat unit)	44.00
*c1ccc(C(c2ccc(N3C(=O)c4cc(-c5ccc(C(C)(C)C)cc5)c(-c5cc6c(cc5-c5ccc(C(C)(C)C)cc5)C(=O)N(*)C6=O)cc4C3=O)cc2)(C(F)(F)F)C(F)(F)F)cc1 (repeat unit)	381.00
*Oc1ccc(S(=O)(=O)c2ccc(Oc3ccc(-c4ccc(-c5ccc(*)cc5)cc4)cc3)cc2)cc1 (repeat unit)	251.00
*c1ccc(Sc2ccc(-c3nc4cc(-c5ccc6nc(-c7ccccc7)c(*)nc6c5)ccc4nc3-c3ccccc3)cc2)cc1 (repeat unit)	288.00
*c1ccc(-c2ccc(-c3ccc([Si](C)(C)[Si](*)(C)C)s3)s2)s1 (repeat unit)	45.00
*Oc1ccc(C(C)(C)c2ccc(OC(=O)CCCCC(*)=O)c(C)c2)cc1C (repeat unit)	33.50
*c1ccc(C(=O)OCCCCCCOC(=O)c2ccc(-c3nnc(*)s3)cc2)cc1 (repeat unit)	125.00
*C(=O)N1C(=O)N(C(=O)c2ccc3c(c2)C(=O)N(c2ccc(Oc4ccc(N5C(=O)c6ccc(*)cc6C5=O)cc4)cc2)C3=O)C(C)(C)C1=O (repeat unit)	156.00
*CC(*)C1CCCC(C)C1 (repeat unit)	141.00
*O[Si](C)(C)c1ccc([Si](*)(C)C)cc1 (repeat unit)	-18.00
*c1ccccc1C(=O)Oc1ccc2c(*)c3ccc(=O)cc-3oc2c1 (repeat unit)	250.00
*c1ccc(Oc2cccc(Oc3ccc(-n4c(=O)c5cc6c(=O)n(*)c(=O)c6cc5c4=O)cc3)c2)cc1 (repeat unit)	326.00
*c1cccc(S(=O)(=O)NCCCCNS(*)(=O)=O)c1 (repeat unit)	82.00
*c1cccc(C(F)(F)C(F)(F)C(F)(F)c2cccc(N3C(=O)c4ccc(Oc5ccc6c(c5)C(=O)N(*)C6=O)cc4C3=O)c2)c1 (repeat unit)	183.00
